Reference: publication PMC4896453 (PLoS ONE, 2016)
“Also recorded” adds a separate entry of the source. Like-named read-outs stand apart in the source and are kept apart here.

What was measured:
[1] = test system: electrically stimulated guinea pig ileum; assay: Electrically stimulated guinea pig ileum bioassay; details: for Kb: Cavia porcellus
Description: With approval of Animal Subjects Review Board of the University of Ferrara and from the Italian Ministry of Health (PROT-186) ileum tissues were taken from male albino guinea pigs of 350–400 g (Pampaloni, Pisa, Italy). The animals were treated in accordance with European guidelines (86/609/ECC) and national regulations (DL 116/92). They were housed in 560 x 320 x 180 mm cages (Techinplast), three per cage, under standard conditions (22°C, 55% humidity, 12 h light/dark cycle, light on at 7:00 h) with food (complete feed for guinea pig, Mucedola, Milano, Italy) and water ad libitum. The day of the experiment the animals were killed with an isofluorane overdose. Bioassay experiments were performed as previously described. The tissues were suspended in 5 ml organ baths containing Krebs solution (composition in mM: NaCl 118.5, KCl 4.7, MgSO4 1.2, KH2PO4 1.2, NaHCO3 25, CaCl2 1.8, glucose 10), hexamethonium bromide 22 μM, benadril 0.34 μM and oxygenated with 95% O2 and 5% CO2. The temperature was set at 37°C. At resting tension, 1 g was applied to the tissues. Tissues were stimulated through two platinum electrodes with a supramaximal rectangular pulse of 1 ms duration, 0.05 Hz frequency, 80V amplitude. Electrically evoked contractions were measured isotonically by means of Basile strain gauge transducers (Basile 7006; srl Ugo Basile, Varese, Italy) and recorded with a computer–based acquisition system (Power Lab 8, ADInstruments, USA). After an equilibration period of about 60 min, the contractions induced by electrical field stimulation were stable. At this time, cumulative concentration response curves to agonists were constructed (0.5 log unit steps). Antagonists were injected into the baths 15 minutes before constructing agonist concentration response curves.
Data are expressed as mean±SEM or with confidence intervals as appropriate. For more than 2 groups, data are analysed using ANOVA with post-hoc testing using Dunnett’s or Bonferroni’s test as appropriate. Where there are only 2 groups paired or unpaired t-tests were used. P values of less than 0.05 were considered significant. All curve fitting was accomplished using Graphpad-Prism (V6). […] In gpI experiments the antagonist potency (pKb) is calculated from the rightward shift of the agonist concentration response curve by a fixed antagonist concentration.

[2] = biological target: T1, Mu receptor (CHOhMu cells) (Homo sapiens, UniProt P35372); assay: cAMP assay, forskolin-stimulated CHOhMu whole cells; assay type: cell-based; details: forskolin 1μM, mean (±SEM)
T1 construct: expressed in transfected cells; host or cells: CHO (Chinese Hamster Ovary)
T1 sequence (P35372 whole entry): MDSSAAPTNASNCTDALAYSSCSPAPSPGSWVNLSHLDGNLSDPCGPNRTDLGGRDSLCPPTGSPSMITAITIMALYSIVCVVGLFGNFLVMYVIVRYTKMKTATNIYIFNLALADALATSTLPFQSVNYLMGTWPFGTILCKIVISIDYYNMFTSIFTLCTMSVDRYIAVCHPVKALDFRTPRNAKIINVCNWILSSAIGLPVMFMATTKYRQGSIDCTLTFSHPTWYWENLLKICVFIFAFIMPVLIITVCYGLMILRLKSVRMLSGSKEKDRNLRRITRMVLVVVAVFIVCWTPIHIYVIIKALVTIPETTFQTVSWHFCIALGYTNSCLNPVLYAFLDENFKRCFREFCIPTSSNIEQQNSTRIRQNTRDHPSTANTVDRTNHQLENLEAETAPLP
Description: (§1) CHOhMu and CHOhNOP whole cells were suspended in Krebs/HEPES buffer, containing isobutylmethylxanthine (1mM) and forskolin (1μM).

[3] = biological target: T2, NOP receptor (CHOhNOP cells) (Homo sapiens, UniProt P41146); assay: cAMP assay, forskolin-stimulated CHOhNOP whole cells; assay type: cell-based; details: forskolin 1μM, mean (±SEM)
T2 construct: expressed in transfected cells; host or cells: CHO (Chinese Hamster Ovary)
T2 sequence (P41146 whole entry): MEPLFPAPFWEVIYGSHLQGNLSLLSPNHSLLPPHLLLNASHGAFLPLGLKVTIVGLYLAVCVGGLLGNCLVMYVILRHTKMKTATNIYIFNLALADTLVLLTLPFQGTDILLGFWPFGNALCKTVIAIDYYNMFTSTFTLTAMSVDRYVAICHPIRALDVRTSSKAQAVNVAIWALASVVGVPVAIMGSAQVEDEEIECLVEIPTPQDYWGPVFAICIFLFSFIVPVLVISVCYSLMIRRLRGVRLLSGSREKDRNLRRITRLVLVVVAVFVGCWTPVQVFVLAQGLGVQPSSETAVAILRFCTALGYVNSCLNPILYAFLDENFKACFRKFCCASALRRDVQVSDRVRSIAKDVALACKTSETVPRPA
Description: as §1

rat = details: in vivo; cited from earlier work
human Mu receptor = biological target: T3, human Mu receptor (Homo sapiens, UniProt P35372); assay: Calcium mobilisation, CHO cells with Mu and Gαqi5; assay type: cell-based; details: calcium mobilisation, at least 3 experiments in duplicate
T3 construct: expressed in transfected cells; host or cells: CHO
T3 sequence (P35372 whole entry): as the sequence (P35372 whole entry) above

[4] = biological target: T4, human Mu receptor (Mu-RLuc/β-arrestin 2-RGFP) (Homo sapiens, UniProt P35372); assay: BRET Mu-RLuc/β-arrestin 2-RGFP interaction, SH-SY5Y cells; assay type: cell-based; details: BRET, SH-SY5Y cells, room temperature; at least 4 experiments in duplicate
T4 construct: expressed in transfected cells; host or cells: SH-SY5Y (retroviral expression; whole cells)
T4 sequence (P35372+P27652 fused): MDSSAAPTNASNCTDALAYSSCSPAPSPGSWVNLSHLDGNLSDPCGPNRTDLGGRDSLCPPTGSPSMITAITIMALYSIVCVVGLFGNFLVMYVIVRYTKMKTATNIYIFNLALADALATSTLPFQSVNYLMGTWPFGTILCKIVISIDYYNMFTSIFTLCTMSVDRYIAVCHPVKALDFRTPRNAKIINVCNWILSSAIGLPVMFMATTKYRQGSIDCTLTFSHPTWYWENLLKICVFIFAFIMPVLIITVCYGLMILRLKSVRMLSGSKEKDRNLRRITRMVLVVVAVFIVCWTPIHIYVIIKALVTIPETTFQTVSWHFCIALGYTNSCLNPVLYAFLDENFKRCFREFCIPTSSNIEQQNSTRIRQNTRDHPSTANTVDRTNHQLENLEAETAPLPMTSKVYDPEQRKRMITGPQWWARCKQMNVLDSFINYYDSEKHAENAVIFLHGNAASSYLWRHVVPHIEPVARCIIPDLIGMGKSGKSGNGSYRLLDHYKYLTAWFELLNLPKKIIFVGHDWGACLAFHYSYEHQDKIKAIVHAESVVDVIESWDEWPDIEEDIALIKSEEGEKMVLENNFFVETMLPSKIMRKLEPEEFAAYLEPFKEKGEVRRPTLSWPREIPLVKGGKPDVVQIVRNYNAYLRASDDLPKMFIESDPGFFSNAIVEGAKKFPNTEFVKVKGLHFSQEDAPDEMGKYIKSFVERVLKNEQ
T4 sequence (P32121 whole entry partner): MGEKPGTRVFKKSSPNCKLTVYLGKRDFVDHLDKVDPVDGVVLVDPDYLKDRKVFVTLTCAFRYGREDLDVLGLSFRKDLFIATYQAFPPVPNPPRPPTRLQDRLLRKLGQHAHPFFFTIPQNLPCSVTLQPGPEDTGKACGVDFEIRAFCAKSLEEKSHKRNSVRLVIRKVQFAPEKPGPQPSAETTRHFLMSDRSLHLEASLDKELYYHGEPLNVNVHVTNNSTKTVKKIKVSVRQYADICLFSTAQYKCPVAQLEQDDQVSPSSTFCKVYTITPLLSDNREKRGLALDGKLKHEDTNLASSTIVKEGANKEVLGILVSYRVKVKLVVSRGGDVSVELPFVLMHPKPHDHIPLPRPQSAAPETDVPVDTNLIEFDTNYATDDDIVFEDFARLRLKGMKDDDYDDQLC

monkey = monkey tail withdraw assay; cited from earlier work
[5] = biological target: T5, human NOP receptor (NOP-RLuc/β-arrestin 2-RGFP) (Homo sapiens, UniProt P41146); assay: BRET NOP-RLuc/β-arrestin 2-RGFP interaction, HEK-293 cells; assay type: cell-based; details: BRET, HEK-293 cells, room temperature; at least 4 experiments in duplicate
T5 construct: expressed in transfected cells; host or cells: HEK-293 (retroviral expression; whole cells)
T5 sequence (P41146+P27652 fused): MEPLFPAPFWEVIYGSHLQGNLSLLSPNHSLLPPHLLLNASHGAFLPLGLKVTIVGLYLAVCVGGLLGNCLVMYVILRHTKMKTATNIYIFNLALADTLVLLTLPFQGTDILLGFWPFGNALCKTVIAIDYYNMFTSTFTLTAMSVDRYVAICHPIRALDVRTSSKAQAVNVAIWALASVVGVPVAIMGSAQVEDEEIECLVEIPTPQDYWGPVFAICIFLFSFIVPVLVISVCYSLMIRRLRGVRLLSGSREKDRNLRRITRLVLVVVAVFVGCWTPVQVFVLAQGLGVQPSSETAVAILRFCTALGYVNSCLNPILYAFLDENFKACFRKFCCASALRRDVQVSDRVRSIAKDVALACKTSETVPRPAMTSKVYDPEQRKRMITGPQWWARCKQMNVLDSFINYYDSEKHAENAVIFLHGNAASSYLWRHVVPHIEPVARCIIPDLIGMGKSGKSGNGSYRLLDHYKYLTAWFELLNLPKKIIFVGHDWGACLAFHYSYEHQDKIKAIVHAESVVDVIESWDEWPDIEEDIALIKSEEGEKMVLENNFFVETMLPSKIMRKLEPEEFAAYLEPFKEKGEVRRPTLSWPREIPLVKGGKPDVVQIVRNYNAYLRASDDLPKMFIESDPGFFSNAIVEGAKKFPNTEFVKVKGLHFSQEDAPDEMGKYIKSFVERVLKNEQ
T5 sequence (P32121 whole entry partner): as the sequence (P32121 whole entry partner) above

human NOP receptor = biological target: T6, human NOP receptor (Homo sapiens, UniProt P41146); assay: Calcium mobilisation, CHO cells with NOP and Gαqi5; assay type: cell-based; details: calcium mobilisation, CHO cells with human NOP and Gαqi5, Fluo-4 AM, 37°C; at least 3 experiments in duplicate
T6 construct: expressed in transfected cells; host or cells: CHO
T6 sequence (P41146 whole entry): as the sequence (P41146 whole entry) above

rats = assay: Rota-rod test after intrathecal infusion; assay type: in vivo, rat; details: same range of doses (0.1–1 nmol), data not shown
Description: For all the experiments described below, male Sprague-Dawley rats (Harlan, Varese, Italy), weighing approximately 280-300g at the beginning of the experimental procedure, were used. Animals were housed in CeSAL (Centro Stabulazione Animali da Laboratorio, University of Florence) and used at least one week after their arrival. One rat was housed per cage (size 26x41 cm); animals were fed with standard laboratory diet and tap water ad libitum, and kept at 23±1°C with a 12 h light/dark cycle, light at 7 a.m. […] All animals were monitored daily using a scoring system (based on: Appearance, Food and Water Intake, Clinical Signs, Natural Behaviour and Provoked Behaviour. Maximum score is 20 and animals reaching 10 are euthanized. In the experiments reported here no animals reached this score and none died before the end of the experiment) and at the end of the experiment were euthanized by CO2 overdose. […]
Rota-rod apparatus (Ugo Basile, Varese, Italy) consisted of a base platform and a rotating rod with a diameter of 6 cm and a non-slippery surface. […] The integrity of motor coordination was assessed on the basis of the number of falls from the rod in 60s measured 15, 30, 45, 60, 90, 120 and 180 min after treatments.

[6] = biological target: human NOP receptor (NOP-RLuc/Gβ1-RGFP) (Homo sapiens, UniProt P41146); assay: biochemical; assay type: biochemical
Chain of human NOP receptor (NOP-RLuc/Gβ1-RGFP) (P41146 whole entry, looked up): as the sequence (P41146 whole entry) above

[7] = antagonist 15 minutes before agonist curve, from rightward shift, read-out: antagonist potency pKb against DeNo (converted)

C=CCN1CC[C@]23c4c5ccc(O)c4O[C@H]2C(=O)CC[C@@]3(O)[C@H]1C5 [naloxone, Naloxone]
Kb [1, 7]: 28.8 nM
Kb ([1]; read-out: antagonist potency pKb against dermorphin (converted), antagonist 15 minutes before agonist curve, from rightward shift): 2.69 nM
antagonist potency pKb against N/OFQ ([1]; antagonist 100 nM, 15 minutes before agonist curve, from rightward shift): does not affect the inhibitory action of N/OFQ

C=C[C@@]1(C)CC(=O)[C@]2(O)[C@@]3(C)[C@@H](O)CCC(C)(C)[C@@H]3[C@H](O)[C@H](OC(C)=O)[C@@]2(C)O1 [forskolin]
increase in cAMP production compared to basal, CHOhMu [2]: 24.3 (±1.79) fold
increase in cAMP production compared to basal, CHOhNOP [3]: 21.23 (±3.86) fold

CN1CC[C@]23c4c5ccc(O)c4O[C@H]2[C@@H](O)C=C[C@H]3[C@H]1C5 [morphine]
time to tolerance (rat): 11 days

Cc1cccc2c1CC[C@H](CN1CCC(c3c(Cl)cccc3Cl)CC1)C[C@@H]2O [SB-612111]
Kb ([1]; antagonist 100 nM, 15 minutes before agonist curve, from rightward shift, read-out: antagonist potency pKb against N/OFQ (converted)): 4.37 nM
Kb [1, 7]: 85.1 nM

CC(C)C[C@H](NC(=O)[C@H](CCCCN)NC(=O)[C@H](CCCNC(=N)N)NC(=O)[C@H](C)NC(=O)[C@H](CO)NC(=O)[C@H](CCCCN)NC(=O)[C@H](CCCNC(=N)N)NC(=O)[C@H](C)NC(=O)CNC(=O)[C@@H](NC(=O)[C@H](Cc1ccccc1)NC(=O)CNC(=O)CNC(=O)[C@@H](N)Cc1ccccc1)[C@@H](C)O)C(=O)N[C@@H](C)C(=O)N[C@@H](CC(N)=O)C(=O)N[C@@H](CCC(N)=O)C(=O)O [N/OFQ, nociceptin/orphanin FQ]
Mu Emax ± SEM (human Mu receptor; % over basal fluorescence, CHO cells with human Mu and Gαqi5): Inactive
Mu pEC50 (CL95%) (human Mu receptor; CHO cells with human Mu and Gαqi5, Fluo-4 AM, 37°C): Inactive
β-arrestin 2 Mu pEC50 (CL95%) [4]: inactive

[Dmt^1]N/OFQ(1–13)-NH2
increase in potency over N/OFQ (monkey): 30 fold

C[C@@H](NC(=O)[C@@H](N)Cc1ccc(O)cc1)C(=O)N[C@@H](Cc1ccccc1)C(=O)NCC(=O)N[C@@H](Cc1ccc(O)cc1)C(=O)N1CCC[C@H]1C(=O)N[C@@H](CO)C(N)=O [dermorphin]
β-arrestin 2 NOP pEC50 (CL95%) [5]: completely inactive
NOP pEC50 (CL95%) (human NOP receptor): crc incomplete
animal performance in the rotarod test (rats): impaired animal performance in the rotarod test
Gβ1-protein NOP pEC50(CL95%) [6]: very weak only increasing BRET ratio at micromolar concentrations; also recorded: crc incomplete
Emax (human Mu receptor; % over basal fluorescence, CHO cells with human Mu and Gαqi5, SEM): 234 ± 14%
